Laboratory results reported in ChEMBL document CHEMBL1201862, “PubChem BioAssay data set” (2004).
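Where inhibition never reached the appropriate level, the endpoint shown equals the highest concentration tested. Otherwise, values were interpolated linearly from a five-concentration, 48-hour dose response in 96-well plates. At the GI50, growth is halved.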 The source made the active and inactive calls. Cut-off read from the data, not from the text of the source: active = GI50 up to about 1.1 µM and inactive = higher.

Columns and labels:
Assay in all cases: NCI tumour cell line growth inhibition, 48 h
A549 = tested on: A549
CCRF-CEM = tested on: CCRF-CEM
DU-145 = tested on: DU-145
EKVX = tested on: EKVX
HL-60 = tested on: HL-60
KM12 = tested on: KM12
MDA-MB-231 = tested on: MDA-MB-231
MDA-MB-435 = tested on: MDA-MB-435
MDA-N = tested on: MDA-N
NCI-H23 = tested on: NCI-H23
NCI-H460 = tested on: NCI-H460
RXF 393 = tested on: RXF 393
SF-295 = tested on: SF-295
SF-539 = tested on: SF-539
SK-MEL-28 = tested on: SK-MEL-28
SK-MEL-2 = tested on: SK-MEL-2
SN12C = tested on: SN12C
SNB-19 = tested on: SNB-19
TK-10 = tested on: TK-10
UACC-62 = tested on: UACC-62

SMILES | GI50 (A549) | GI50 (CCRF-CEM) | GI50 (DU-145) | GI50 (EKVX) | GI50 (HL-60) | GI50 (KM12) | GI50 (MDA-MB-231) | GI50 (MDA-MB-435) | GI50 (MDA-N) | GI50 (NCI-H23) | GI50 (NCI-H460) | GI50 (RXF 393) | GI50 (SF-295) | GI50 (SF-539) | GI50 (SK-MEL-28) | GI50 (SK-MEL-2) | GI50 (SN12C) | GI50 (SNB-19) | GI50 (TK-10) | GI50 (UACC-62)
CCCC(=O)Nc1cc(C(=O)N2C[C@@H]3C[C@]34C2=CC(=O)c2[nH]cc(C)c24)n(COC)c1 | 9.75 µM (inactive) | 0.711 µM (active) | 2.54 µM (inactive) | 12.6 µM (inactive) | 1.79 µM (inactive) | 8.85 µM (inactive) | 8.53 µM (inactive) | 9.06 µM (inactive) | 8.65 µM (inactive) | 1.56 µM (inactive) | 6.64 µM (inactive) | 1.84 µM (inactive) | 19.9 µM (inactive) | 7.06 µM (inactive) | 7.48 µM (inactive) | 2.38 µM (inactive) | 10.6 µM (inactive) | 12.4 µM (inactive) | 10.7 µM (inactive) | 5.86 µM (inactive)
COc1cccc2c1C(=O)c1c(O)c3c(c(O)c1C2=O)C[C@@](O)(C(C)=O)CC3OC1CC(OC2CC(N)C(O)C(C)O2)C(O)C(C)O1 (stereo not given in full) | 52.5 µM (inactive) | 10.5 µM (inactive) | 49.1 µM (inactive) | > 100 µM (inactive) | 10.6 µM (inactive) | 35.8 µM (inactive) | > 64.9 µM (inactive) | 56.2 µM (inactive) | 68.1 µM (inactive) | 34.9 µM (inactive) | 14.6 µM (inactive) | 83 µM (inactive) | 49 µM (inactive) | 25.1 µM (inactive) | > 72.4 µM (inactive) | 67.6 µM (inactive) | 36.9 µM (inactive) | 21.1 µM (inactive) | > 100 µM (inactive) | 66.1 µM (inactive)
